Test results from patent publication US20240190849A1, “AMINOPYRIMIDINE COMPOUNDS AND METHODS OF THEIR USE” (TYRA BIOSCIENCES, INC., priority 2021, published 2024).

What was measured:
Details in all cases: FGFR binding data
[1] = target: T1, FGFR1 (Homo sapiens, UniProt P11362); assay: Kinase binding assay (kinase-tagged T7 phage, affinity beads, qPCR readout), FGFR1
T1 construct: made in house; host or cells: E. coli derived from BL21, infected with T7 phage
In short: (§1)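 Competition binding: T7 phage-tagged kinases incubated with immobilized biotinylated ligand beads and test compound (11-point 3-fold series, 0.9% DMSO final) for 1 h at room temperature. Bound kinase eluted and quantified by qPCR. Kd from Hill equation fit, slope fixed at −1.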

[2] = target: T2, FGFR2 (Homo sapiens, UniProt P21802); assay: Kinase binding assay (kinase-tagged T7 phage, affinity beads, qPCR readout), FGFR2
T2 construct: made in house; host or cells: E. coli derived from BL21, infected with T7 phage
In short: as §1

[3] = target: T3, FGFR3 (Homo sapiens, UniProt P22607); assay: Kinase binding assay (kinase-tagged T7 phage, affinity beads, qPCR readout), FGFR3
T3 construct: made in house; host or cells: E. coli derived from BL21, infected with T7 phage
In short: as §1

[4] = target: T4, FGFR3 (V555M) (Homo sapiens, UniProt P22607, V555M); assay: Kinase binding assay (kinase-tagged T7 phage, affinity beads, qPCR readout), FGFR3 (V555M)
T4 construct: made in house; host or cells: E. coli derived from BL21, infected with T7 phage
In short: as §1

T4 sequence (P22607 23-806 V555M): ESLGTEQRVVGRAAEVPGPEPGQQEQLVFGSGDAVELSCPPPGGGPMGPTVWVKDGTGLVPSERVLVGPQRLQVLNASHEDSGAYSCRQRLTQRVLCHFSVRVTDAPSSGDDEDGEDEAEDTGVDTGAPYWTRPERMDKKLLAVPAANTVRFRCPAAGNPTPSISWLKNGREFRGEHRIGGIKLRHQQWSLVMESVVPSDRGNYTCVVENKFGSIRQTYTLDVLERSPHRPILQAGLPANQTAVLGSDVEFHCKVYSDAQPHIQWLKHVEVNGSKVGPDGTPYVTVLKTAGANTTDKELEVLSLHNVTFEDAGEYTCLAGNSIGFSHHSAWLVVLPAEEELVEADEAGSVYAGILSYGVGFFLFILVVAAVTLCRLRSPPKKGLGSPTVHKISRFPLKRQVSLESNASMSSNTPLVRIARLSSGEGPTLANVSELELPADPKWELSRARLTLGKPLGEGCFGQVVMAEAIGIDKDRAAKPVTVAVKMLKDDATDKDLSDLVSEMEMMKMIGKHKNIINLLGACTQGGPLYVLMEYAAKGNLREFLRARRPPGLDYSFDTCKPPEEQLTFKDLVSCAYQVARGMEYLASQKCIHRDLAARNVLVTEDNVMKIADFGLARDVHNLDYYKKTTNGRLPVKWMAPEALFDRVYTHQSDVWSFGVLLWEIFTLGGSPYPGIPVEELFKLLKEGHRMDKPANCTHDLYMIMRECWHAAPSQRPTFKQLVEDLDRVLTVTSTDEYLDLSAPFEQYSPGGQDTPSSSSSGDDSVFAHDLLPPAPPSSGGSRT
T3 sequence (P22607 23-806): as the sequence (P22607 23-806 V555M) above, with M533V counted along it
T1 sequence (P11362 22-822): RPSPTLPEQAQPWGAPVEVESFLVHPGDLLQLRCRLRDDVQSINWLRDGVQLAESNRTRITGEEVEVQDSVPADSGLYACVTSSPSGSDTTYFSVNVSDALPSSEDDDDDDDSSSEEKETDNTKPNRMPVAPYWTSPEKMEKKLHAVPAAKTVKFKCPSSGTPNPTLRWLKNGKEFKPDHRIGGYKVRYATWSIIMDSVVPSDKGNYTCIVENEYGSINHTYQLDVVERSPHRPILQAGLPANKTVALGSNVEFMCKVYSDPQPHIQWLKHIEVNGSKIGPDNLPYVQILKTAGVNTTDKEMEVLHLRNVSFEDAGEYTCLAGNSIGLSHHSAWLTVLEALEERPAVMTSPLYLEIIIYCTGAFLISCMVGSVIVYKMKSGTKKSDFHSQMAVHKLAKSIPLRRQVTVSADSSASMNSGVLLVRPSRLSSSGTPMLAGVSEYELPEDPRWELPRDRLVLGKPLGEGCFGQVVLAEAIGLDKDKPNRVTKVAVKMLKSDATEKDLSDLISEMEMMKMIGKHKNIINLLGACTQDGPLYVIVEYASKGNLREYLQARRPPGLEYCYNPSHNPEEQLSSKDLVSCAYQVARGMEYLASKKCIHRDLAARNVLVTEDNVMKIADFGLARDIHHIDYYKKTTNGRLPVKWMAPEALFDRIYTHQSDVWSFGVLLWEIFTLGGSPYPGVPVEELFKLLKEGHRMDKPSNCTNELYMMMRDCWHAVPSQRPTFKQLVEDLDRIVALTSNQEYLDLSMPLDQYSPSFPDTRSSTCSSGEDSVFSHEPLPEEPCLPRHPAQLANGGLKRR
T2 sequence (P21802 22-821): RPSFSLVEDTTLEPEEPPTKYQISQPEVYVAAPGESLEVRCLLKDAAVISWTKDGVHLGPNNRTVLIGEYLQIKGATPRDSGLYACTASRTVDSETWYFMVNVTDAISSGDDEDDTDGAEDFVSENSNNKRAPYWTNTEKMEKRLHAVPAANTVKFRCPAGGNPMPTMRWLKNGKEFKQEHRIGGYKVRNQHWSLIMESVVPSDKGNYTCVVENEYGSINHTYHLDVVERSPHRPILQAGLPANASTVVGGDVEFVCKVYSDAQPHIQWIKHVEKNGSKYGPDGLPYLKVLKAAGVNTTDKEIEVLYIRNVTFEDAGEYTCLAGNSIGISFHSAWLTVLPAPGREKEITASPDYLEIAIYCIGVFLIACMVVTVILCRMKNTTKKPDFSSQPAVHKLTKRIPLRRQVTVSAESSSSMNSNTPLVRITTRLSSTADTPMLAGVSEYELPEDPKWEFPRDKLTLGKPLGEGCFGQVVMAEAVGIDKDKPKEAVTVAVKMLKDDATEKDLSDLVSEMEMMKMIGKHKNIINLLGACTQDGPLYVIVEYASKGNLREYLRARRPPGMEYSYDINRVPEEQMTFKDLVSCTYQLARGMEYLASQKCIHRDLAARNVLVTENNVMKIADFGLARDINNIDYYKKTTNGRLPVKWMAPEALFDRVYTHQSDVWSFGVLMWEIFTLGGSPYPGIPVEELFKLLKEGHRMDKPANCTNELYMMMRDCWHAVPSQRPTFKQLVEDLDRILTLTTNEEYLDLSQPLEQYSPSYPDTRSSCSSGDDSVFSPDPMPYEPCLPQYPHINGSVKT

| Compound | Kd [1] [nM] | Kd [2] [nM] | Kd [3] [nM] | Kd [4] [nM] |
| --- | --- | --- | --- | --- |
| Cc1cn(-c2nc(Nc3cnn(C[C@H](C)O)c3)ncc2F)c2ncc(NC(=O)/C=C/CN(C)C)cc12 [Example 196, (E)-4-(dimethylamino)-N-[1-[5-fluoro-2-[[1-[(2S)-2-hydroxypropyl]pyrazol-4-yl]amino]pyrimidin-4-yl]-3-methyl-pyrrolo[2,3-b]pyridin-5-yl]but-2-enamide] | 0.1 to 100 | 0.1 to 100 | 0.1 to 100 | 0.1 to 100 |
| C=CC(=O)Nc1ccc2c(ccn2-c2nc(Nc3ccc(N4CCOCC4)cc3OCC)ncc2Cl)c1 [Example 11, N-[1-[5-chloro-2-(2-ethoxy-4-morpholino-anilino)pyrimidin-4-yl]indol-5-yl]prop-2-enamide] | > 1000 | > 1000 | > 1000 | > 1000 |
| C=CC(=O)Nc1ccc2c(-c3nc(Nc4ccc(OC)c(OC)c4)ncc3Cl)cn(C)c2c1 [Example 31, N-[3-[5-chloro-2-(3,4-dimethoxyanilino)pyrimidin-4-yl]-1-methyl-indol-6-yl]prop-2-enamide] | 0.1 to 100 | 0.1 to 100 | 0.1 to 100 | 0.1 to 100 |
| C=CC(=O)Nc1ccc2c(-c3nc(Nc4ccc(N(C)CCN(C)C)c(OC)c4)ncc3Cl)cn(C)c2c1 [Example 58, N-[3-[5-chloro-2-[4-[2-(dimethylamino)ethyl-methyl-amino]-3-methoxy-anilino]-pyrimidin-4-yl]-1-methyl-indol-6-yl]prop-2-enamide] | 0.1 to 100 | 0.1 to 100 | 0.1 to 100 | 0.1 to 100 |
| C#CC(=O)Nc1ccc2c(c1)c(C)cn2-c1nc(Nc2ccnn2C)ncc1C [Example 108, N-[3-methyl-1-[5-methyl-2-[(2-methylpyrazol-3-yl)amino]pyrimidin-4-yl]indol-5-yl]prop-2-ynamide] | 0.1 to 100 | 0.1 to 100 | 0.1 to 100 | 0.1 to 100 |
| C=CC(=O)Nc1ccc2c(-c3ccnc(Nc4cnn(C(C)C)c4)n3)cn(C)c2c1 [Example 96, N-[3-[2-[(1-isopropylpyrazol-4-yl)amino]pyrimidin-4-yl]-1-methyl-indol-6-yl]prop-2-enamide] | 0.1 to 100 | 0.1 to 100 | 0.1 to 100 | 0.1 to 100 |
| C=CC(=O)Nc1cc(C)c2c(c1)c(C)cn2-c1nc(Nc2cnn(C)c2)ncc1Cl [Example 84, N-[1-[5-chloro-2-[(1-methylpyrazol-4-yl)amino]pyrimidin-4-yl]-3,7-dimethyl-indol-5-yl]prop-2-enamide] | 0.1 to 100 | 0.1 to 100 | 0.1 to 100 | 0.1 to 100 |
| CC#CC(=O)Nc1cnc2c(c1)c(C)cn2-c1nc(Nc2ccnn2C)ncc1F [Example 134, N-[1-[5-fluoro-2-[(2-methylpyrazol-3-yl)amino]pyrimidin-4-yl]-3-methyl-pyrrolo[2,3-b]pyridin-5-yl]but-2-ynamide] | > 1000 | > 1000 | > 1000 | > 1000 |
| C=CC(=O)Nc1ccc2c(c1)c(C)cn2-c1nc(Nc2cccc(N3CCN(CCO)CC3)c2)ncc1Cl [Example 88, N-[1-[5-chloro-2-[3-[4-(2-hydroxyethyl)piperazin-1-yl]anilino]pyrimidin-4-yl]-3-methyl-indol-5-yl]prop-2-enamide] | 0.1 to 100 | 0.1 to 100 | 0.1 to 100 | 0.1 to 100 |
| CC#CC(=O)N(C)c1ccc2c(c1)c(C)cn2-c1nc(Nc2ccnn2C)ncc1C [Example 152, N-methyl-N-[3-methyl-1-[5-methyl-2-[(2-methylpyrazol-3-yl)amino]pyrimidin-4-yl]indol-5-yl]but-2-ynamide] | > 1000 | > 1000 | > 1000 | > 1000 |
| C=CC(=O)Nc1ccc2c(c1)c(C)cn2-c1cc(Nc2cnn(C)c2)nnc1C [Example 221, N-[3-methyl-1-[3-methyl-6-[(1-methylpyrazol-4-yl)amino]pyridazin-4-yl]indol-5-yl]prop-2-enamide] | > 1000 | > 1000 | > 1000 | > 1000 |
| C=CC(=O)Nc1ccc2c(c1)c(C)cn2-c1nc(Nc2cc(C)sn2)ncc1F [Example 161, N-[1-[5-fluoro-2-[(5-methylisothiazol-3-yl)amino]pyrimidin-4-yl]-3-methyl-indol-5-yl]prop-2-enamide] | 0.1 to 100 | 0.1 to 100 | 0.1 to 100 | 0.1 to 100 |
| C=C(Cl)C(=O)Nc1cnc2c(c1)c(C)cn2-c1nc(Nc2ccn(C)n2)ncc1C [Example 116, 2-chloro-N-[3-methyl-1-[5-methyl-2-[(1-methylpyrazol-3-yl)amino]pyrimidin-4-yl]pyrrolo[2,3-b]pyridin-5-yl]prop-2-enamide] | 100 to 250 | 0.1 to 100 | 0.1 to 100 | 0.1 to 100 |
| C=CC(=O)Nc1ccc2c(-c3nc(Nc4ccnn4C)ncc3Cl)cn(C)c2c1 [Example 62, N-[3-[5-chloro-2-[(2-methylpyrazol-3-yl)amino]pyrimidin-4-yl]-1-methyl-indol-6-yl]prop-2-enamide] | 250 to 1000 | 0.1 to 100 | 0.1 to 100 | 0.1 to 100 |
| C=CS(=O)(=O)Nc1ccc2c(c1)c(C)cn2-c1nc(Nc2ccnn2C)ncc1C [Example 109, N-[3-methyl-1-[5-methyl-2-[(2-methylpyrazol-3-yl)amino]pyrimidin-4-yl]indol-5-yl]ethenesulfonamide] | 0.1 to 100 | 0.1 to 100 | 0.1 to 100 | 0.1 to 100 |
| C=CC(=O)Nc1ccc2c(c1)c(C)cn2-c1nc(Nc2ccc(CN3CCN(C)CC3)c(F)c2)ncc1Cl [Example 86, N-[1-[5-chloro-2-[3-fluoro-4-[(4-methylpiperazin-1-yl)methyl]-anilino]pyrimidin-4-yl]-3-methyl-indol-5-yl]prop-2-enamide] | 0.1 to 100 | 0.1 to 100 | 0.1 to 100 | 0.1 to 100 |
| C=CC(=O)Nc1ccc2c(ccn2-c2nc(Nc3cn(C)nc3OCC)ncc2Cl)c1 [Example 14, N-[1-[5-chloro-2-[(3-ethoxy-1-methyl-pyrazol-4-yl)amino]pyrimidin-4-yl]indol-5-yl]prop-2-enamide] | 250 to 1000 | > 1000 | > 1000 | 100 to 250 |
| C=CC(=O)Nc1ccc2c(ccn2-c2nc(Nc3cn(C)nc3OC)ncc2Cl)c1 [Example 12, N-[1-[5-chloro-2-[(3-methoxy-1-methyl-pyrazol-4-yl)amino]-pyrimidin-4-yl]indol-5-yl]prop-2-enamide] | 250 to 1000 | > 1000 | 100 to 250 | 0.1 to 100 |
| C=CC(=O)Nc1ccc2c(c1)c(C)cn2-c1ccnc(Nc2cnn(C)c2)n1 [Example 79, N-[3-methyl-1-[2-[(1-methylpyrazol-4-yl)amino]pyrimidin-4-yl]indol-5-yl]prop-2-enamide] | 0.1 to 100 | 0.1 to 100 | 0.1 to 100 | 0.1 to 100 |
| C#CC(=O)Nc1cnc2c(c1)c(C)cn2-c1nc(Nc2cnn(CCO)c2)ncc1F [Example 133, N-[1-[5-fluoro-2-[[1-(2-hydroxyethyl)pyrazol-4-yl]amino]pyrimidin-4-yl]-3-methyl-pyrrolo[2,3-b]pyridin-5-yl]prop-2-ynamide] | 0.1 to 100 | 0.1 to 100 | 0.1 to 100 | 0.1 to 100 |
| C=CC(=O)Nc1ccc2c(ccn2-c2nc(Nc3ccc(N(C)CCN(C)C)cc3)ncc2Cl)c1 [Example 3, N-[1-[5-chloro-2-[4-[2-(dimethylamino)ethyl-methyl-amino]anilino]pyrimidin-4-yl]indol-5-yl]prop-2-enamide] | 0.1 to 100 | 0.1 to 100 | 0.1 to 100 | 0.1 to 100 |
| C=CC(=O)Nc1ccc2c(-c3ccnc(Nc4cnn(CC)c4)n3)cn(C)c2c1 [Example 95, N-[3-[2-[(1-ethylpyrazol-4-yl)amino]pyrimidin-4-yl]-1-methyl-indol-6-yl]prop-2-enamide] | 0.1 to 100 | 0.1 to 100 | 0.1 to 100 | 0.1 to 100 |
| C=CC(=O)Nc1ccc2c(-c3ccnc(Nc4cnn(CC5CC5)c4)n3)cn(C)c2c1 [Example 105, N-[3-[2-[[1-(cyclopropylmethyl)pyrazol-4-yl]amino]pyrimidin-4-yl]-1-methyl-indol-6-yl]prop-2-enamide] | 0.1 to 100 | 0.1 to 100 | 0.1 to 100 | 0.1 to 100 |
